What all share (assay): Well-diffusion antifungal activity
The test system of experiment [1] is A. flavus ATCC 9643. It is filed as cell-based, Aspergillus flavus. Conditions: for zone of inhibition at 1000 µg/mL: Aspergillus flavus, read-out: IZD. Here is the method:
(§1) This study investigated strains of four distinct fungal pathogens: Aspergillus flavus ATCC 9643, A. niger ATCC 11414, Rhizopus oryzae ATCC 96382, and Penicillium chrysogenum ATCC 10106. Every strain was acquired from the Dep. of Micro. Fac. Agric., […] Uni., in Egypt. Initially kept and preserved in malt agar medium at 4 °C, the pathogens were then grown overnight at 28 °C in malt broth medium to evaluate the antifungal activity. Fungal pathogen standard inoculum was prepared by following the procedure described by. To assess the antifungal activity, the pathogens were first maintained and stored at 4 °C in malt agar medium. They were then cultured in malt broth medium for a whole night at 28 °C. According to [22], the well-diffusion technique was used to test the antifungal activity. This included using a 9.0 mm cork borer that had been sterilized to create wells in the malt agar layer. […] After adding 1000 μg/ml of control pyrazole compounds and the standard antifungal (Fluconazole 1000 μg/ml) to each well, the petri dishes were incubated at 28 °C for 72 h. The diameter of the standard reference antifungal was compared to the millimeters measurements of the inhibitory zones. The formula according to [22] was utilized to compute the activity index (AI).1 [drawing 1]

The subject of experiment [2] is P. chrysogenum ATCC 10106. It is filed as cell-based, Penicillium chrysogenum. Conditions: for zone of inhibition at 1000 µg/mL: Penicillium chrysogenum, read-out: IZD; for AI (activity index): relative to Fluconazole 1000 µg/ml. As for the experimental part: as §1
The subject of experiment [3] is R. oryzae ATCC 96382. The format is cell-based, Rhizopus oryzae. Conditions: Rhizopus arrhizus, read-out: IZD. As for the experimental part: as §1
Experiment [4] concerns A. niger ATCC 11414. It is filed as cell-based, Aspergillus niger. Conditions: for zone of inhibition at 1000 µg/mL: Aspergillus niger, read-out: IZD; for AI (activity index): relative to Fluconazole 1000 µg/ml.
[5] abbreviates: ATCC9643, 1000 µg/ml, 72 h, 28 °C.
[6] abbreviates: ATCC10106, 1000 µg/ml, 72 h, 28 °C.
Setting [7] is: ATCC96382, 1000 µg/ml, 72 h, 28 °C.
The mark [8] stands for this setting: ATCC11414, 1000 µg/ml, 72 h, 28 °C.

The values that follow come from publication PMC11800497, “Antifungal activity and biocompatibility assessment with molecular docking and dynamic simulations of new pyrazole derivatives” (BMC Biotechnology, 2025).

Read-outs that look alike come from different tables or passages of the source. Marks after values point to notes of the source that are not given here.

Consider `O=C1OC(=O)c2c(Br)c(Br)c(Br)c(Br)c21` [compound 5, 4,5,6,7 tetrabromoisobenzofuran-1,3-dione], for which the zone of inhibition at 1000 µg/mL in experiment [1] (setting [5]), in experiment [2] (setting [6]), in experiment [3] (setting [7]) and in experiment [4] (setting [8]) was 0 mm each time.
For `Cc1ccc(NC(=O)/C(C#N)=C/c2cn(-c3ccccc3)nc2-c2ccccc2)cc1` [3a], the zone of inhibition at 1000 µg/mL in experiment [1] (setting [5]), in experiment [2] (setting [6]), in experiment [3] (setting [7]) and in experiment [4] (setting [8]) was 0 mm in each case.
Consider `CN(C)C=C1C(=O)NN=C(c2cn(-c3ccccc3)nc2-c2ccccc2)C1=O` [compound 12], for which the IZD in experiment [1] (1000 µg/ml, 72 h, 28 °C) is given as 23 ± 0.02^d mm; in experiment [4] (1000 µg/ml, 72 h, 28 °C), 25 ± 0.08^f mm. Moreover, the zone of inhibition at 1000 µg/mL is 23 mm in experiment [1] (setting [5]), 0 mm in experiment [2] (setting [6]), 0 mm in experiment [3] (setting [7]) and 25 mm in experiment [4] (setting [8]). The “AI (activity index)” value in experiment [4] (1000 µg/ml) came to 0.78.
As to `OC(Cn1cncn1)(Cn1cncn1)c1ccc(F)cc1F` [Fluconazole, reference compound], the zone of inhibition at 1000 µg/mL turned out to be 30.02 ± 0.05 mm in experiment [1] (setting [5]), 23.1 ± 0.06 mm in experiment [2] (setting [6]), 20.99 ± 0.05 mm in experiment [3] (setting [7]) and 32 ± 0.2 mm in experiment [4] (setting [8]).
For the compound `N#C/C(=C\c1cn(-c2ccccc2)nc1-c1ccccc1)C(=O)Nc1ccc(Cl)cc1` [3d], the zone of inhibition at 1000 µg/mL in experiment [1] (setting [5]), in experiment [2] (setting [6]), in experiment [3] (setting [7]) and in experiment [4] (setting [8]) was 0 mm each time.
For `N#C/C(=C\c1cn(-c2ccccc2)nc1-c1ccccc1)C(=O)Nc1ccc([N+](=O)[O-])cc1` [3f], the zone of inhibition at 1000 µg/mL in experiment [1] (setting [5]), in experiment [2] (setting [6]), in experiment [3] (setting [7]) and in experiment [4] (setting [8]) was 0 mm each time.
For the compound `N#CCC(=O)NN=Cc1cn(-c2ccccc2)nc1-c1ccccc1` [compound 8], the zone of inhibition at 1000 µg/mL in experiment [1] (setting [5]), in experiment [2] (setting [6]), in experiment [3] (setting [7]) and in experiment [4] (setting [8]) was 0 mm in each case.
On to `O=C(NN=Cc1cn(-c2ccccc2)nc1-c1ccccc1)c1cc2ccccc2oc1=O` [10a], for which the zone of inhibition at 1000 µg/mL in experiment [1] (setting [5]), in experiment [2] (setting [6]), in experiment [3] (setting [7]) and in experiment [4] (setting [8]) was 0 mm each time.
In the case of `CN(C)/C=C(\C#N)C(=O)N/N=C/c1cn(-c2ccccc2)nc1-c1ccccc1` [compound 11], the zone of inhibition at 1000 µg/mL in experiment [1] (setting [5]), in experiment [2] (setting [6]), in experiment [3] (setting [7]) and in experiment [4] (setting [8]) was 0 mm throughout.
`N#C/C(=C\c1cn(-c2ccccc2)nc1-c1ccccc1)C(=O)Nc1nccs1` [3g]: the zone of inhibition at 1000 µg/mL was determined as 0 mm in experiment [1] (setting [5]), 0 mm in experiment [2] (setting [6]), 0 mm in experiment [3] (setting [7]) and 18 ± 0.77 mm in experiment [4] (setting [8]). In addition, the “AI (activity index)” value in experiment [4] (1000 µg/ml) worked out at 0.56.
Turning to `N#C/C(=C\c1cn(-c2ccccc2)nc1-c1ccccc1)C(=O)Nc1nc2ccccc2s1` [3h], the zone of inhibition at 1000 µg/mL stood at 0 mm in experiment [1] (setting [5]), 15 ± 0.25 mm in experiment [2] (setting [6]), 0 mm in experiment [3] (setting [7]) and 0 mm in experiment [4] (setting [8]). For the same compound, the “AI (activity index)” value in experiment [2] (1000 µg/ml) was 0.65.
Regarding `N#C/C(=C\c1cn(-c2ccccc2)nc1-c1ccccc1)C(=O)Nc1ccc(C(=O)O)cc1` [3e], the zone of inhibition at 1000 µg/mL in experiment [1] (setting [5]), in experiment [2] (setting [6]), in experiment [3] (setting [7]) and in experiment [4] (setting [8]) was 0 mm each time.
Regarding `N#C/C(=C\c1cn(-c2ccccc2)nc1-c1ccccc1)C(=O)Nc1ccc(Br)cc1` [3c], the zone of inhibition at 1000 µg/mL in experiment [1] (setting [5]), in experiment [2] (setting [6]), in experiment [3] (setting [7]) and in experiment [4] (setting [8]) was 0 mm in each case.
Turning to `O=Cc1cn(-c2ccccc2)nc1-c1ccccc1` [compound 1, 1,3-diphenyl-1H-pyrazole-4-carbaldehyde], the zone of inhibition at 1000 µg/mL in experiment [1] (ATCC9643, 72 h) turned out to be 0 mm; in experiment [2] (ATCC10106, 72 h), 0 mm; in experiment [3] (ATCC96382, 72 h) it was 0 mm; in experiment [4] (ATCC11414, 72 h), 0 mm.
In the case of `Cc1ccc(N=Nc2ccc3oc(=O)c(C(=O)NN=Cc4cn(-c5ccccc5)nc4-c4ccccc4)cc3c2)cc1` [10b], the zone of inhibition at 1000 µg/mL was found to be 0 mm in experiment [1] (setting [5]), 20 mm in experiment [2] (setting [6]), 0 mm in experiment [3] (setting [7]) and 28 mm in experiment [4] (setting [8]). The IZD is on record as 20 ± 0.13^e mm in experiment [2] (1000 µg/ml, 72 h, 28 °C) and 28 ± 0.12^c mm in experiment [4] (1000 µg/ml, 72 h, 28 °C). Besides, the “AI (activity index)” value in experiment [2] (1000 µg/ml) and in experiment [4] (1000 µg/ml) was 0.87 each time.
For `N#Cc1c(-c2cn(-c3ccccc3)nc2-c2ccccc2)[nH][nH]c1=O` [compound 7], the zone of inhibition at 1000 µg/mL in experiment [1] (setting [5]) was 0 mm; in experiment [2] (setting [6]), 13 ± 0.11 mm; in experiment [3] (setting [7]) it was 0 mm; in experiment [4] (setting [8]), 0 mm. Further, the “AI (activity index)” value in experiment [2] (1000 µg/ml) was 0.56.
